According to the supplement of paper PMC11061612:

Columns and labels:
AZD1775 = compound: C=CCn1c(=O)c2cnc(Nc3ccc(N4CCN(C)CC4)cc3)nc2n1-c1cccc(C(C)(C)O)n1 [AZD1775]; details: max 3 µM
How it was run: (§1)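 Plates with 1536 wells received cancer cell lines in 7.5 μl of DMEM/F12 or RPMI containing 10% FBS. After 24 hours at 37°C and 5% CO2, cells were dosed for 72 hours with final DMSO typically 0.2%, and viability was read by CellTiter-Glo 2.0 luminescence scaled between blank-well and DMSO-well means. The single-agent IC50 was taken from a logistic fit of the dose responses made with a non-linear mixed effects model, that logistic curve having two parameters.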

SRA737 = compound: N#Cc1cnc(Nc2cc(NC[C@H]3CNCCO3)c(C(F)(F)F)cn2)cn1 [SRA737]; details: max 10 µM
How it was run: as §1

Lapatinib = compound: CS(=O)(=O)CCNCc1ccc(-c2ccc3ncnc(Nc4ccc(OCc5cccc(F)c5)c(Cl)c4)c3c2)o1 [Lapatinib]; details: max 10 µM
How it was run: as §1

AZD4320 = compound: CN(CC[C@H](CSC1=CC=CC=C1)NC2=C(C=C(C=C2)S(=O)(=O)NC(=O)C3=CC=C(C=C3)N4CCC(CC4)[C@H](C5=CC=CC=C5C6=CC=C(C=C6)Cl)O)S(=O)(=O)C(F)(F)F)CCO [AZD4320]; details: max 1 µM
How it was run: as §1

SN-38 = compound: CCc1c2c(nc3ccc(O)cc13)-c1cc3c(c(=O)n1C2)COC(=O)[C@]3(O)CC [SN-38]; details: max 0.3 µM
How it was run: as §1

Carboplatin = compound: C1CC(C1)(C(=O)[O-])C(=O)[O-].N.N.[Pt+2] [Carboplatin]; details: max 10 µM
How it was run: as §1

Gefitinib = compound: COc1cc2ncnc(Nc3ccc(F)c(Cl)c3)c2cc1OCCCN1CCOCC1 [Gefitinib]; details: max 10 µM
How it was run: as §1

Palbociclib = compound: CC(=O)c1c(C)c2cnc(Nc3ccc(N4CCNCC4)cn3)nc2n(C2CCCC2)c1=O [Palbociclib]; details: max 10 µM
How it was run: as §1

Dasatinib = compound: CC1=C(C(=CC=C1)Cl)NC(=O)C2=CN=C(S2)NC3=CC(=NC(=N3)C)N4CCN(CC4)CCO [Dasatinib]; details: max 2 µM
How it was run: as §1

Trametinib = compound: CC(=O)Nc1cccc(-n2c(=O)n(C3CC3)c(=O)c3c(Nc4ccc(I)cc4F)n(C)c(=O)c(C)c32)c1 [Trametinib]; details: max 1 µM
How it was run: as §1

AZD5363 = compound: C1CN(CCC1(C(=O)N[C@@H](CCO)C2=CC=C(C=C2)Cl)N)C3=NC=NC4=C3C=CN4 [AZD5363]; details: max 10 µM
How it was run: as §1

AZD5153 = compound: COc1nnc2ccc(N3CCC(c4ccc(OCCN5CCN(C)C(=O)[C@H]5C)cc4)CC3)nn12 [AZD5153]; details: max 1 µM
How it was run: as §1

MK-2206 = compound: NC1(c2ccc(-c3nc4ccn5c(=O)[nH]nc5c4cc3-c3ccccc3)cc2)CCC1 [MK-2206]; details: max 10 µM
How it was run: as §1

AZD1390 = compound: CC(C)n1c(=O)n(C)c2cnc3cc(F)c(-c4ccc(OCCCN5CCCCC5)nc4)cc3c21 [AZD1390]; details: max 0.3 µM
How it was run: as §1

Olaparib = compound: O=C(c1cc(Cc2n[nH]c(=O)c3ccccc23)ccc1F)N1CCN(C(=O)C2CC2)CC1 [Olaparib]; details: max 10 µM
How it was run: as §1

[1] = compound: O=C(Nc1ccc2[nH]nc(-c3ccncc3)c2c1)[C@@H]1CCN(CC(=O)N2CCN(c3ccc(-c4ncccn4)cc3)CC2)C1; details: max 5 µM
How it was run: as §1

Savolitinib = compound: C[C@@H](c1ccc2nccn2c1)n1nnc2ncc(-c3cnn(C)c3)nc21 [Savolitinib]; details: max 1 µM
How it was run: as §1

Selumetinib = compound: Cn1cnc2c(F)c(Nc3ccc(Br)cc3Cl)c(C(=O)NOCCO)cc21 [Selumetinib]; details: max 10 µM
How it was run: as §1

Etoposide = compound: COc1cc([C@@H]2c3cc4c(cc3[C@@H](O[C@@H]3O[C@@H]5CO[C@@H](C)O[C@H]5[C@H](O)[C@H]3O)[C@H]3COC(=O)[C@H]23)OCO4)cc(OC)c1O [Etoposide]; details: max 10 µM
How it was run: as §1

Crizotinib = compound: C[C@@H](Oc1cc(-c2cnn(C3CCNCC3)c2)cnc1N)c1c(Cl)ccc(F)c1Cl [Crizotinib]; details: max 10 µM
How it was run: as §1

AZD7648 = compound: Cc1cc2ncnn2cc1Nc1ncc2c(n1)n(C1CCOCC1)c(=O)n2C [AZD7648]; details: max 10 µM
How it was run: as §1

AZD2811 = compound: CCN(CCO)CCCOc1ccc2c(Nc3cc(CC(=O)Nc4cccc(F)c4)[nH]n3)ncnc2c1 [AZD2811]; details: max 1 µM
How it was run: as §1

Gemcitabine = compound: Nc1ccn([C@@H]2O[C@H](CO)[C@@H](O)C2(F)F)c(=O)n1 [Gemcitabine]; details: max 0.3 µM
How it was run: as §1

Venetoclax = compound: CC1(C)CCC(CN2CCN(c3ccc(C(=O)NS(=O)(=O)c4ccc(NCC5CCOCC5)c([N+](=O)[O-])c4)c(Oc4cnc5[nH]ccc5c4)c3)CC2)=C(c2ccc(Cl)cc2)C1 [Venetoclax]; details: max 1 µM
How it was run: as §1

Doxorubicin = compound: COc1cccc2c1C(=O)c1c(O)c3c(c(O)c1C2=O)C[C@@](O)(C(=O)CO)C[C@@H]3O[C@H]1C[C@H](N)[C@H](O)[C@H](C)O1 [Doxorubicin]; details: max 1 µM
How it was run: as §1

AZD8186 = compound: C[C@@H](Nc1cc(F)cc(F)c1)c1cc(C(=O)N(C)C)cc2c(=O)cc(N3CCOCC3)oc12 [AZD8186]; details: max 10 µM
How it was run: as §1

Prexasertib = compound: COc1cccc(OCCCN)c1-c1cc(Nc2cnc(C#N)cn2)n[nH]1 [Prexasertib]; details: max 1 µM
How it was run: as §1

SG3199 = compound: CC1=CN2[C@@H](C1)C=NC3=CC(=C(C=C3C2=O)OC)OCCCCCOC4=C(C=C5C(=C4)N=C[C@@H]6CC(=CN6C5=O)C)OC [SG3199]; details: max 0.001 µM
How it was run: as §1

Alisertib = compound: COc1cc(Nc2ncc3c(n2)-c2ccc(Cl)cc2C(c2c(F)cccc2OC)=NC3)ccc1C(=O)O [Alisertib]; details: max 10 µM
How it was run: as §1

AZD5991 = compound: Cc1c2c(nn1C)CSCc1cc(n(C)n1)CSc1cc(c3ccccc3c1)OCCCc1c(C(=O)O)n(C)c3c-2c(Cl)ccc13 [AZD5991]; details: max 1 µM
How it was run: as §1

AZD0156 = compound: CN(C)CCCOc1ccc(-c2ccc3ncc4c(c3c2)n(C2CCOCC2)c(=O)n4C)cn1 [AZD0156]; details: max 3 µM
How it was run: as §1

Paclitaxel = compound: CC(=O)O[C@H]1C(=O)[C@@]2(C)[C@H]([C@H](OC(=O)c3ccccc3)[C@]3(O)C[C@H](OC(=O)[C@H](O)[C@@H](NC(=O)c4ccccc4)c4ccccc4)C(C)=C1C3(C)C)[C@]1(OC(C)=O)CO[C@@H]1C[C@@H]2O [Paclitaxel]; details: max 3 µM
How it was run: as §1

5-Fluorouracil = compound: O=c1[nH]cc(F)c(=O)[nH]1 [5-Fluorouracil]; details: max 20 µM
How it was run: as §1

Taselisib = compound: Cc1nc(-c2cn3c(n2)-c2ccc(-c4cnn(C(C)(C)C(N)=O)c4)cc2OCC3)n(C(C)C)n1 [Taselisib]; details: max 10 µM
How it was run: as §1

AZD6738 = compound: C[C@@H]1COCCN1C2=NC(=NC(=C2)C3(CC3)[S@](=N)(=O)C)C4=C5C=CNC5=NC=C4 [AZD6738]; details: max 10 µM
How it was run: as §1

Cell Line | IC50, cell viability 72 h (AZD1775) [µM] | IC50, cell viability 72 h (SRA737) [µM] | IC50, cell viability 72 h (Lapatinib) [µM] | IC50, cell viability 72 h (AZD4320) [µM] | IC50, cell viability 72 h (SN-38) [µM] | IC50, cell viability 72 h (Carboplatin) [µM] | IC50, cell viability 72 h (Gefitinib) [µM] | IC50, cell viability 72 h (Palbociclib) [µM] | IC50, cell viability 72 h (Dasatinib) [µM] | IC50, cell viability 72 h (Trametinib) [µM] | IC50, cell viability 72 h (AZD5363) [µM] | IC50, cell viability 72 h (AZD5153) [µM] | IC50, cell viability 72 h (MK-2206) [µM] | IC50, cell viability 72 h (AZD1390) [µM] | IC50, cell viability 72 h (Olaparib) [µM] | IC50, cell viability 72 h [1] [µM] | IC50, cell viability 72 h (Savolitinib) [µM] | IC50, cell viability 72 h (Selumetinib) [µM] | IC50, cell viability 72 h (Etoposide) [µM] | IC50, cell viability 72 h (Crizotinib) [µM] | IC50, cell viability 72 h (AZD7648) [µM] | IC50, cell viability 72 h (AZD2811) [µM] | IC50, cell viability 72 h (Gemcitabine) [µM] | IC50, cell viability 72 h (Venetoclax) [µM] | IC50, cell viability 72 h (Doxorubicin) [µM] | IC50, cell viability 72 h (AZD8186) [µM] | IC50, cell viability 72 h (Prexasertib) [µM] | IC50, cell viability 72 h (SG3199) [µM] | IC50, cell viability 72 h (Alisertib) [µM] | IC50, cell viability 72 h (AZD5991) [µM] | IC50, cell viability 72 h (AZD0156) [µM] | IC50, cell viability 72 h (Paclitaxel) [µM] | IC50, cell viability 72 h (5-Fluorouracil) [µM] | IC50, cell viability 72 h (Taselisib) [µM] | IC50, cell viability 72 h (AZD6738) [µM]
LCLC-103H (Non-Small Cell Lung Carcinoma) | 2.19 | > 10 | > 10 | > 1 | > 0.3 | > 10 | > 10 | > 10 | > 2 | > 1 | > 10 | > 1 | > 10 | > 0.3 | > 10 | > 5 | > 1 | > 10 | > 10 | > 10 | > 10 | > 1 | > 0.3 | > 1 | > 1 | > 10 | 0.0881 | > 0.001 | > 10 | > 1 | > 3 | 0.0178 | > 20 | > 10 | > 10
LS-1034 (Colorectal Carcinoma) | 0.918 | > 10 | > 10 | > 1 | > 0.3 | > 10 | > 10 | > 10 | > 2 | 0.052 | > 10 | 0.85 | > 10 | > 0.3 | > 10 | > 5 | > 1 | 2.42 | > 10 | > 10 | > 10 | > 1 | 0.12 | > 1 | > 1 | > 10 | 0.238 | > 0.001 | > 10 | > 1 | > 3 | 0.59 | > 20 | > 10 | 6.05
